Values joined by “and” are separate entries in the source; they are usually repeats but may differ in a detail not shown here. Equal values may be shown once.
Biological target: dihydrodipicolinate reductase (DHPR) (Escherichia coli, UniProt P04036)
Assay: Screening of bi-ligands for DHPR (Example 25), kinetic assay at 340 nm
Type: biochemical
Conditions: bi-ligands, Example 25 (FIG. 7); substrate and NADPH near Km
Procedure: Screening of Biligands for Binding to Dihydrodipicolinate Reductase (DHPR)
This example describes the screening of bi-ligands having common ligand mimics for binding activity to dihydrodipicolinate reductase (DHPR).
Bi-ligands were produced by the methods of Examples 16 to 18. The bi-ligands were screened for binding to DHPR.
Stock solutions of each of the reagents were prepared in the following concentrations. Dilutions of the stock solutions were prepared prior to running the assay in the concentrations indicated below. Dilution of DHPR was prepared in 10 mM HEPES at a pH of 7.4. DHPS was not diluted and was stored in eppindorf tubes.
The L-ASA solution was prepared in the following manner. 180 μM stock solution of ASA was prepared. 100 μl of the ASA stock was mixed with 150 μl of concentrated NaHCO3 and 375 μl of […]. For use in the assay, 28.8 mM L-ASA equal 625 μl of the solution. The L-ASA stock solution was kept at a temperature of −20° C. After dilution, the pH of the 28.8 mM solution was checked and maintained between 1 and 2.
First, the DHPS reaction was monitored at 340 nm prior to and after addition of the inhibitor to detect background reaction with the inhibitor. The solution for background detection was a 945 μl solution containing 0.1 HEPES (pH 7.8), 1 mM pyruvate, 6 μM NADPH, 40 μM L-ASA, and 7 μl of 1 mg/ml DHPS at 25° C. in the volumes provided above. The sample solution was then mixed and incubated for 10 minutes. Next, 500 nM solutions of the inhibitors and enough DMSO to provide a final DMSO concentration of 5% were added. The solution was mixed and incubated for an additional 6 minutes.
In DHPR samples, 5 μl of the diluted DHPR enzyme were added. The sample was mixed for 20 seconds and then the reaction was run for 10 minutes. After a 50 second lag, the samples were read in a Cary spectrophotometer at 340 nm. Reading of the samples was continued until 300 seconds. Cuvette #1 contained the control reaction (no inhibitor), and cuvette #2 contained the positive control reaction in which Cibacron Blue at 2.58 μM was substituted for inhibitor to yield 70 to 80% inhibition. The substrate and NADPH or NAHD were kept near their Km values.

Chain of dihydrodipicolinate reductase (DHPR) (P04036 whole entry): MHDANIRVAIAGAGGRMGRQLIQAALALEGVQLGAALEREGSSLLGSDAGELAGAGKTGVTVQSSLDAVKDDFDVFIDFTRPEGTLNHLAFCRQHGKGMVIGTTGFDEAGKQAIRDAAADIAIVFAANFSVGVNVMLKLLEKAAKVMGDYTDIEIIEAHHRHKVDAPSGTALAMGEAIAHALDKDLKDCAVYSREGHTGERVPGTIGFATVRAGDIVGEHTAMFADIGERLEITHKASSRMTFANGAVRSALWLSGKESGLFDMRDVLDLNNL

With `N=C1NC(=O)C(=Cc2ccc(O)c(C(=O)NCCSc3cc(C(=O)O)nc(C(=O)O)c3)c2)S1` [compound 5a, 4-{2-[2-hydroxy-5-(2-imino-4-oxo-thiazolidin-5-ylidenemethyl)-benzoylamino]-ethylsulfanyl}-pyridine-2,6-dicarboxylic acid] the IC50 was ~8.2 µM and ~15.5 µM.
In the case of `N=C1NC(=O)C(=Cc2cccc(C(=O)NCCSc3cc(C(=O)O)nc(C(=O)O)c3)c2)S1` [compound 5b, 4-{2-[3-(2-imino-4-oxo-thiazolidin-5-ylidenemethyl)-benzoylamino]-ethylsulfanyl}-pyridine-2,6-dicarboxylic acid], the IC50 is reported as ~1.02 µM.
With `N=C1NC(=O)C(=Cc2ccc(C(=O)NCCSc3cc(C(=O)O)nc(C(=O)O)c3)cc2)S1` [compound 5c, 4-{2-[4-(2-imino-4-oxo-thiazolidin-5-ylidenemethyl)-benzoylamino]-ethylsulfanyl}-pyridine-2,6-dicarboxylic acid] the IC50 was ~33 µM.

Source: patent publication US20050019825A9, “Common ligand mimics: pseudothiohydantoins” (priority 2002, published 2005)
